# Test results taken from ChEMBL document CHEMBL5512668, “Macrocyclic Azapeptide Nitriles: Structure-Based Discovery of Potent SARS-CoV-2 Main Protease Inhibitors as Antiviral Drugs” (J Med Chem, 2024).
# Target: Procathepsin L (Homo sapiens, UniProt P07711)
# Assay: Inhibition of human cathepsin L using Z-Phe-Arg-pNA as substrate incubated for 60 mins
# Details: not given
# Procathepsin L, sequence (P07711 whole entry): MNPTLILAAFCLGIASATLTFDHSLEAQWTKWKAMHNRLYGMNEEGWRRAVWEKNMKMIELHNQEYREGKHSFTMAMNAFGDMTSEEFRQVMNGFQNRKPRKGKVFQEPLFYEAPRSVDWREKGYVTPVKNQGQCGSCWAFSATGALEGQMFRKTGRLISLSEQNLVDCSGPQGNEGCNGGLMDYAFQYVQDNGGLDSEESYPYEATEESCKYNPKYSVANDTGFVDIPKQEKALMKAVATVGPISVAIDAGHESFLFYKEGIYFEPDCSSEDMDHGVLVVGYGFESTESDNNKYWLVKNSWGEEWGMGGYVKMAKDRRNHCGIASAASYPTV
row,SMILES,Ki
1,CN(C(=O)[C@H](Cc1ccccc1)NC(=O)[C@@H](NC(=O)c1cccs1)C(C)(C)C)N(C#N)Cc1ccc(Cl)cc1,0.179 µM
2,CN(C(=O)[C@H](Cc1ccccc1)NC(=O)[C@@H](NC(=O)C1CCCC1)C(C)(C)C)N(C#N)Cc1ccc(Cl)cc1,0.344 µM

# System: SARS-CoV-2
# Assay: microbe, parasite or virus in culture
# Details: Severe acute respiratory syndrome coronavirus 2, JPN/TY/WK-521, VeroE6/TMPRSS2, 24 h, read-out: INH
row,SMILES,inhibition at […]
1,CN1C(=O)[C@H](Cc2ccccc2)N(C(=O)COc2ccc(Cl)cc2Cl)CCCOc2c(Cl)cccc2CN1C#N,58%

# Target: Cathepsin S (Homo sapiens, UniProt P25774)
# Sequence (P25774 whole entry): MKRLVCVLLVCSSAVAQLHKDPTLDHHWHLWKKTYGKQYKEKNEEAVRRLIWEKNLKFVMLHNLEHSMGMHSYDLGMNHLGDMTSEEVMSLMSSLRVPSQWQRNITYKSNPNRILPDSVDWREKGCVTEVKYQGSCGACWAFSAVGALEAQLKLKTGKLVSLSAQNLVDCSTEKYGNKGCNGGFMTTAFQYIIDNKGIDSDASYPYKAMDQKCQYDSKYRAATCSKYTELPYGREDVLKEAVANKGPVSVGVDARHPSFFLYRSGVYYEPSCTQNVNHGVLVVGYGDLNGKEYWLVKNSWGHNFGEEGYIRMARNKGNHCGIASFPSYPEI
# Assay: Inhibition of recombinant human cathepsin S using Z-Phe-Arg-AMC as substrate incubated for 60 mins
# Details: not given
row,SMILES,Ki
1,CN1C(=O)[C@H](Cc2ccccc2)NC(=O)COCCOCCOc2ccc(F)cc2CN1C#N,0.765 µM
2,CN1C(=O)[C@H](Cc2ccccc2)N(C(=O)COc2ccc(Cl)cc2Cl)CCCOc2ccc(Cl)c(F)c2CN1C#N,1.82 µM
3,CN1C(=O)[C@H](CCc2ccccc2)NC(=O)COCCOCCOc2ccc(F)cc2CN1C#N,0.662 µM
4,CN1C(=O)[C@H](CCc2ccccc2)NC(=O)COCCOc2ccc(F)cc2CN1C#N,0.179 µM
5,CN1C(=O)[C@H](Cc2ccccc2)N(C(=O)CNC(=O)c2cccs2)CCCOc2c(Cl)cccc2CN1C#N,0.47 µM
6,CN1C(=O)[C@H](Cc2ccccc2)N(C(=O)[C@@H](NC(=O)c2cccs2)C(C)(C)C)CCCOc2ccc(Cl)c(F)c2CN1C#N,3.02 µM

# System: not listed separately
# Assay: Stability of compound in DMEM assessed as time required for 50% compound degradation at 100 uM incubated for 24 hrs by HPLC method
# Details: not given
row,SMILES,"half-life at 24 h, 100 µM"
1,CN1C(=O)[C@H](Cc2ccccc2)N(C(=O)COc2ccc(Cl)cc2Cl)CCCOc2c(Cl)cccc2CN1C#N,1.76 h
2,CN1C(=O)[C@H](Cc2ccccc2)N(C(=O)CNC(=O)c2cccs2)CCCOc2c(Cl)cccc2CN1C#N,7.65 h

# Target: T1, Replicase polyprotein 1ab (Severe acute respiratory syndrome coronavirus 2, UniProt P0DTD1)
# Assay: not given
# Details: not given
row,SMILES,Ki
1,CN1C(=O)[C@H](Cc2ccccc2)N(C(=O)COc2ccc(Cl)cc2Cl)CCCOc2c(Cl)cccc2CN1C#N,0.0268 µM
2,CN1C(=O)[C@H](Cc2ccccc2)N(C(=O)CNC(=O)c2cccs2)CCCOc2c(Cl)cccc2CN1C#N,0.00229 µM
3,CN(C(=O)[C@H](Cc1ccccc1)NC(=O)[C@@H](NC(=O)c1cccs1)C(C)(C)C)N(C#N)Cc1ccc(Cl)cc1,0.0133 µM
4,CN(C(=O)[C@H](Cc1ccccc1)NC(=O)[C@@H](NC(=O)C1CCCC1)C(C)(C)C)N(C#N)Cc1ccc(Cl)cc1,0.023 µM

# System: SARS-CoV-2
# Assay: microbe, parasite or virus in culture
# Details: Severe acute respiratory syndrome coronavirus 2, JPN/TY/WK-521, VeroE6/TMPRSS2
row,SMILES,IC50
1,CC(C)(C)[C@H](NC(=O)C(F)(F)F)C(=O)N1C[C@H]2[C@@H]([C@H]1C(=O)N[C@H](C#N)C[C@@H]1CCNC1=O)C2(C)C,0.16 µM

# System: not listed separately
# Assay: in vitro
# Details: male, human, plasma
row,SMILES,half-life at 100 µM
1,CN1C(=O)[C@H](Cc2ccccc2)N(C(=O)COc2ccc(Cl)cc2Cl)CCCOc2c(Cl)cccc2CN1C#N,1.92 h
2,COc1ccc([C@@H]2Sc3ccccc3N(CCN(C)C)C(=O)[C@@H]2OC(C)=O)cc1.Cl [DILTIAZEM HYDROCHLORIDE],13.1 h
3,CCN(CC)CCOC(=O)c1ccc(N)cc1.Cl [PROCAINE HYDROCHLORIDE],0.103 h
4,CN1C(=O)[C@H](Cc2ccccc2)N(C(=O)CNC(=O)c2cccs2)CCCOc2c(Cl)cccc2CN1C#N,3 h

# System: SARS-CoV-2
# Assay: microbe, parasite or virus in culture
# Details: Severe acute respiratory syndrome coronavirus 2, JPN/TY/WK-521, VeroE6/TMPRSS2
# Remark: another data set of the same source
row,SMILES,EC50
1,CN1C(=O)[C@H](Cc2ccccc2)N(C(=O)COc2ccc(Cl)cc2Cl)CCCOc2c(Cl)cccc2CN1C#N,2.14 µM
2,CC(C)(C)[C@H](NC(=O)C(F)(F)F)C(=O)N1C[C@H]2[C@@H]([C@H]1C(=O)N[C@H](C#N)C[C@@H]1CCNC1=O)C2(C)C,0.86 µM
3,CN1C(=O)[C@H](Cc2ccccc2)N(C(=O)CNC(=O)c2cccs2)CCCOc2c(Cl)cccc2CN1C#N,2.55 µM

# Target: T1, Replicase polyprotein 1ab
# Assay: not given
# Details: not given
# Remark: another data set of the same source
row,SMILES,IC50
1,CN1C(=O)[C@H](Cc2ccccc2)N(C(=O)COc2ccc(Cl)cc2Cl)CCCOc2c(Cl)cccc2CN1C#N,0.038 µM
2,CN1C(=O)[C@H](Cc2ccccc2)NC(=O)COCCOCCOc2ccc(F)cc2CN1C#N,2.61 µM
3,CN1C(=O)[C@H](Cc2ccccc2)N(C(=O)COc2ccc(Cl)cc2Cl)CCCOc2ccc(Cl)c(F)c2CN1C#N,0.057 µM
4,CN1C(=O)[C@H](CCc2ccccc2)NC(=O)COCCOc2ccc(F)cc2CN1C#N,1.47 µM
5,CN1C(=O)[C@H](Cc2ccccc2)N(C(=O)CNC(=O)c2cccs2)CCCOc2c(Cl)cccc2CN1C#N,0.003 µM
6,CN(C(=O)[C@H](Cc1ccccc1)NC(=O)[C@@H](NC(=O)c1cccs1)C(C)(C)C)N(C#N)Cc1ccc(Cl)cc1,0.019 µM
7,CN(C(=O)[C@H](Cc1ccccc1)NC(=O)[C@@H](NC(=O)C1CCCC1)C(C)(C)C)N(C#N)Cc1ccc(Cl)cc1,0.032 µM

# System: SARS-CoV-2
# Assay: microbe, parasite or virus in culture
# Details: Severe acute respiratory syndrome coronavirus 2, WK-521, Vero C1008
row,SMILES,IC50
1,CC(C)(C)[C@H](NC(=O)C(F)(F)F)C(=O)N1C[C@H]2[C@@H]([C@H]1C(=O)N[C@H](C#N)C[C@@H]1CCNC1=O)C2(C)C,0.94 µM

# System: SARS-CoV-2
# Assay: microbe, parasite or virus in culture
# Details: Severe acute respiratory syndrome coronavirus 2, JPN/TY/WK-521, VeroE6/TMPRSS2, 24 h, read-out: INH
# Remark: another data set of the same source
row,SMILES,inhibition at 3.33 µM
1,CC(C)(C)[C@H](NC(=O)C(F)(F)F)C(=O)N1C[C@H]2[C@@H]([C@H]1C(=O)N[C@H](C#N)C[C@@H]1CCNC1=O)C2(C)C,93%
2,CN1C(=O)[C@H](Cc2ccccc2)N(C(=O)CNC(=O)c2cccs2)CCCOc2c(Cl)cccc2CN1C#N,63%
